# Legend:
# Type in all cases: in vivo, C57BL/6J diet-induced obesity (DIO) male mice
# [1] = Example 2: fasted blood glucose at day 27; conditions: 4 hours without food
# Description: (§1) FIG. 5 depicts the experimental approach for this Example, and additional details can be found in Tables 3 and 4 below. C57BL/6J diet-induced obesity (DIO) male mice were obtained at 12 weeks of age and housed singly in the MCW animal facility (https://www.jax.org/jax-mice-and-services/strain-data-sheet-pages/phenotype-information-380050). Mice were maintained on a 60% high fat diet (Research Diets D12492) throughout the experiment. Mice were acclimated for 2 weeks prior to treatment with either semaglutide, reutericyclin (RTC), both drugs, or neither drug.
# (§2) Mice were weight-matched into 4 groups (N=10 per group) and given either reutericyclin via gavage to achieve a dosage of 100 μg/kg or injected intraperitoneally (IP) with semaglutide to administer 1 nmole/kg/day. All mice experienced both gavage and injection with either drug or vehicle. Vehicle for reutericyclin and semaglute are identical: 3.0% DMSO in phosphate buffered saline (PBS).
# The four groups of mice were as follows: Group 1 (black) (HFD-PBS) received no drug but experienced gavage and injection; Group 2 (red) (HFD-RTC) received reutericyclin via gavage and experienced injection with vehicle only; Group 3 (green) (HFD-SemaG) received no drug via gavage and experienced injection with semaglutide; and Group 4 (purple) (HFD-RTC-SemaG) received reutericyclin via gavage and experienced injection with semaglutide.
# Fasted blood glucose (4 hours without food) was performed with standard glucose test strips. Blood was obtained by a tail prick on day 27 of the experiment.
# For each 2-way ANOVA statistical analyses, injection refers to semaglutide, gavage refers to reutericyclin, and interaction refers to the combination of injection and gavage.
# FIG. 9 is a bar graph depicting the fasted blood glucose level at day 27 as described in Example 2.
# [2] = Example 2: change in weight at day 46 after withdrawal of the semaglutide; conditions: 2-way ANOVA
# Description: as §1
# as §2, with “(PBS). […]” for “(PBS).”
# (§3) Mice were weighed daily to assess changes in body mass. […] Feeding efficiency is calculated by measuring the amount of weight gained by each mouse per gram of food consumed over a period of 5 days. Feeding efficiency shown here was calculated over days 21-26. […]
# [3] = Example 2: change in body mass on day 26; conditions: 2-way ANOVA
# Description: as §1
# as §2, with “(PBS). […]” for “(PBS).”
# as §3
# [4] = Example 1: eating behavior, calories ingested per day; conditions: 2-way ANOVA of FIG. 4A; reutericyclin 100 μg/kg gavage, semaglutide 1 nmole/kg/day IP
# Description: (§4) FIG. 1 depicts the experimental approach for this Example. C57BL/6J diet-induced obesity (DIO) male mice were obtained at 12 weeks of age and housed singly in the MCW animal facility (www.jax.org/jax-mice-and-services/strain-data-sheet-pages/phenotype-information-380050). Mice were maintained on a 60% high fat diet (HFD) (Research Diets D12492) throughout the experiment. Mice were acclimated for 2 weeks prior to treatment with either semaglutide, reutericyclin, both drugs, or neither drug.
# as §2
# (§5) The four groups were: the control group (HFD-PBS), which received vehicle only; the HFD-RTC group, which were administered reutericyclin at a dose of 100 μg/kg of body weight in PBS; the HFD-RTC-SemaG group, which received reutericyclin at a dose of 100 μg/kg of body weight and 1 nanomole of semaglutide/kg of body weight in vehicle; and the HFD-SemaG group, which were administered 1 nanomole of semaglutide/kg of body weight in vehicle. […]
# [5] = Example 2: feeding efficiency; conditions: 2-way ANOVA, days 21-26
# Description: as §1
# as §2, with “(PBS). […]” for “(PBS).”
# as §3
# [6] = Example 1: fasted blood glucose; conditions: 2-way ANOVA of FIG. 4B; reutericyclin 100 μg/kg gavage, semaglutide 1 nmole/kg/day IP
# Description: as §4, §2, §5
compound,measurement,setting,value
"CCCCCCC/C=C/C(=O)N1C(=O)C(C(C)=O)=C(O)[C@H]1CC(C)C [reutericyclin, (5R)-1-(2-decenoyl)-2-hydroxy-3-acetyl-5-isobutyl-42-pyrroline-4-one]","Significant?, fasted blood glucose level",[1]; 2-way ANOVA,No
same,"% of total variation, fasted blood glucose level","[1]; 2-way ANOVA, gavage = reutericyclin, injection = semaglutide, interaction = combination",9.241e−005%
same,effect on blood glucose levels,[1]; tail prick,does not
same,"Significant?, change in weight after withdrawal of the semaglutide",[2]; semaglutide stopped at day 26,Yes
same,"% of total variation, change in weight after withdrawal of the semaglutide","[2]; semaglutide stopped at day 26, gavage = reutericyclin, injection = semaglutide, interaction = combination",5.422%
same,"Significant?, change in body mass",[3],Yes
same,"% of total variation, change in body mass","[3]; gavage = reutericyclin 100 μg/kg, injection = semaglutide 1 nmole/kg/day IP, interaction = combination",7.893%
same,effect on eating (calories ingested per day),[4],no noted effect
same,"Significant?, feeding efficiency",[5],Yes
same,"% of total variation, feeding efficiency","[5]; weight gained per gram of food consumed, gavage = reutericyclin, injection = semaglutide, interaction = combination",8.034%
same,effect on fasting blood glucose,[6],no noted effect
